According to US7563781B2, “Triazolopyrimidine derivatives” (Janssen Pharmaceutica NV, priority 2006, dated 2009):

Legend:
[1] = biological target: T1, Focal Adhesion Kinase (full-length Flag-tagged human FAK) (Homo sapiens, UniProt Q05397); assay: in vitro FAK ELISA kinase assay; assay type: biochemical; settings: compound 10 uM; ATP 2 uM; read-out: FAK % Inhib ave: 10 uM
T1 construct: a purified recombinant full-length Flag-tagged human FAK protein; Flag; made in house; host or cells: baculovirus infected insect cells
Method: Compound effects on the tyrosine kinase activity of Focal Adhesion Kinase were assessed with an in vitro FAK ELISA kinase assay. This assay measures the incorporation of phosphate from ATP into a FAK substrate protein using an antibody specific for phospho-tyrosine.
500 ng of FAKsubstrate, a purified recombinant fusion protein of GST and a 73 amino acid region surrounding the Tyr397 human FAK autophosphorylation site, was coated in a high-protein binding polystyrene 96 well plate overnight in a buffer containing 50 mM Hepes, pH 7.5, 150 mM NaCl, 0.1 mM Na-oVO4, 0.1 mM NaF and 1 protease inhibitor tablet/10 mL (Complete Mini-EDTA-free, Roche). The next day this solution was removed and the wells were incubated with 0.2% BSA in 50 mM Hepes, pH 7.5, 150 mM NaCl, 0.2 mM PMSF for 1 hour at 30° C. to block unoccupied protein binding sites. The wells were then washed with 50 mM Hepes, pH 7.5, 150 mM NaCl, 0.1% Tween 20. The kinase reaction was performed with 25 ng/well of FAK enzyme (a purified recombinant full-length Flag-tagged human FAK protein made in baculovirus infected insect cells) in 0.1 mL of a buffer containing 25 mM Hepes, pH 7.5, 5 mM MgCl2, 0.5 mM MnCl2, 10 uM NaoVO4, 0.2 mM PMSF. Compounds were added from 30% DMSO stock solutions for a screening concentration of 10 uM or IC50 determinations from 50 uM in half-log dilutions. The reaction is initiated with addition of ATP to a final concentration of 2 uM and incubated at 30° C. for 1 hour. Following the kinase reaction step, the wells were washed and incubated with 50 ng of Horseradish Peroxidase conjugated anti-phosphotyrosine antibody (PT-66 HRP, Sigma) in 0.1 mL wash buffer for 1 hour at 30° C. Wells were then washed and 0.1 mL HRP substrate, Tetra-methyl Benzidine (Sigma) was added and the color reaction allowed to proceed for 2-3 minutes followed by the addition of 0.1 mL of 1N H2SO4 to stop the HRP reaction. Percent inhibition of FAK kinase activity was calculated by comparing compound containing wells to wells treated with diluent only. Background was subtracted from all wells and was defined as the activity of FAK using 500 ng/well of BSA as a substrate. IC50 values were obtained using Prism data analysis software.

[2] = biological target: T2, CAK complex (human Cdk7, human Cyclin H, MAT-1) (Homo sapiens, UniProt P50613); assay: in vitro time-resolved-fluorescence assay for the CAK kinase activity; assay type: biochemical; settings: compound 20 uM; read-out: CAK % inhib; 20 uM
T2 construct: made in house; host or cells: SF-900 insect cells co-infected with Flag-Cdk7 and Bab-Cyclin H baculoviruses
Source text: Cyclin Dependent Kinase Activating Kinase (CAK) is a complex of proteins that phosphorylates a well-conserved threonine (Thr) residue in all mammalian cyclin dependent kinases (cdks). The CAK complex can also phosphorylate several components of the transcriptional machinery, such as the C-terminal domain (CTD) of RNA polymerase II in the TFIIH transcription complex. The CAK complex localizes to the nucleus, and is composed of three proteins: Cdk7, Cyclin H, and MAT-1. The exemplified method teaches the cloning and expression CAK subunits, particularly a human Cdk7 and a human Cyclin H. The method of the present invention exemplified herein is equally applicable to the cloning and expression of any CAK subunit, such as variants, structural or functional polymorphisms of the human Cdk7 or the human Cyclin H, or their orthologs in other animals such as rat, mouse, pig, dog and monkey.
The CAK complex was purified from co-infected SF-900 insect cells at 48 hours post infection by batch immunoaffinity purification. The infected cells were pelleted by centrifugation and lysed in 1/10 of the culture volume in a solution containing 50 mM Hepes pH 7.5, 10 mM MgCl2, 1 mM DTT, 10 mM Beta-Glycerol phosphate, 20 uM Na-oVO4, 0.2 mM PMSF and 1 μg/mL each of leupeptin, aprotinin, and pepstatin on ice. Cells were mechanically lysed by trituration through a 22-gauge needle followed by sonication or alternately by nitrogen cavitation. The lysed cells were centrifuged at 50,000×G for 1 hour at 4° C. to remove debris and the supernatant was applied to 1/10 volume of prewashed Flag-M2 immunoaffinity resin (Sigma). The CAK complex, by nature of the Flag tagged Cdk7 protein, was allowed to bind to the Flag antibody of the resin overnight at 4° C. with gentle rocking. The resin was washed 4 times with 5 resin volumes of lysis buffer and the bound proteins were eluted by competition with 0.5 mg/mL Flag peptide ([…], American Peptide Co, Inc., SEQ ID NO: 16) in a total of 2 resin volumes. To remove the Flag peptide, the eluted material was applied to PD-10 gel filtration columns (Pharmacia) under conditions recommended by the manufacturer.
Measurement of CAK kinase activity was accomplished using an antibody methodology in which a Europium labeled antibody binds preferentially to serine phosphorylated GST-CTD substrate. The long-lived europium label fluorescence allows a greater signal-to-noise ratio due to the delay in reading the emission wavelength, thereby eliminating signals from immediate fluorescence and fluorescent pharmaceutical screening compounds.
The time-resolved-fluorescence assay for the CAK kinase activity is performed as follows. In a well of a black glutathione coated 96 well micro titer plate (Pierce Chemical, No. 15360), the following reagents were added: 1) 25 ul substrate solution containing 500 ng purified GST-CTD in a buffer having 50 mM Hepes pH 7.5, 10 mM MgCl2, 1 mM DTT, 0.2 mM PMSF, 40 uM Na-oVO4, and 22 uM ATP (as a background control, the buffer, including ATP but not substrate was added); 2) 2.5 ul of screening compounds in a diluent containing 30% DMSO/25 mM Hepes pH7.5 (As a control, the diluent only was added. Typically the final concentration of compound is 1 uM); and 3) 250 ng CAK enzyme complex in enzyme buffer containing 25 ul of 50 mM Hepes pH 7.5, 10 mM MgCl2, 1 mM DTT, 0.2 mM PMSF, and 40 uM Na-oVO4. The micro titer plate was shaken for 2 minutes on a titer plate shaker and allowed to incubate at 30° C. for 20 minutes.
Subsequently, Kinase Stop Solution (75 mM EDTA, 0.2 mM PMSF, 1 mM DTT, 120 uM Na oVO4 in PBS) was added (50 ul/well). The plate was shaken for 2 minutes and incubated overnight at room temperature to allow substrate binding to the wells. The plate contents were flicked out, and the wells of the plate were washed 4 times with 350 ul of wash buffer (Delphia wash buffer, Perkin-Elmer, Inc.). The plate was tapped dry. […]

T1 sequence (Q05397 whole entry): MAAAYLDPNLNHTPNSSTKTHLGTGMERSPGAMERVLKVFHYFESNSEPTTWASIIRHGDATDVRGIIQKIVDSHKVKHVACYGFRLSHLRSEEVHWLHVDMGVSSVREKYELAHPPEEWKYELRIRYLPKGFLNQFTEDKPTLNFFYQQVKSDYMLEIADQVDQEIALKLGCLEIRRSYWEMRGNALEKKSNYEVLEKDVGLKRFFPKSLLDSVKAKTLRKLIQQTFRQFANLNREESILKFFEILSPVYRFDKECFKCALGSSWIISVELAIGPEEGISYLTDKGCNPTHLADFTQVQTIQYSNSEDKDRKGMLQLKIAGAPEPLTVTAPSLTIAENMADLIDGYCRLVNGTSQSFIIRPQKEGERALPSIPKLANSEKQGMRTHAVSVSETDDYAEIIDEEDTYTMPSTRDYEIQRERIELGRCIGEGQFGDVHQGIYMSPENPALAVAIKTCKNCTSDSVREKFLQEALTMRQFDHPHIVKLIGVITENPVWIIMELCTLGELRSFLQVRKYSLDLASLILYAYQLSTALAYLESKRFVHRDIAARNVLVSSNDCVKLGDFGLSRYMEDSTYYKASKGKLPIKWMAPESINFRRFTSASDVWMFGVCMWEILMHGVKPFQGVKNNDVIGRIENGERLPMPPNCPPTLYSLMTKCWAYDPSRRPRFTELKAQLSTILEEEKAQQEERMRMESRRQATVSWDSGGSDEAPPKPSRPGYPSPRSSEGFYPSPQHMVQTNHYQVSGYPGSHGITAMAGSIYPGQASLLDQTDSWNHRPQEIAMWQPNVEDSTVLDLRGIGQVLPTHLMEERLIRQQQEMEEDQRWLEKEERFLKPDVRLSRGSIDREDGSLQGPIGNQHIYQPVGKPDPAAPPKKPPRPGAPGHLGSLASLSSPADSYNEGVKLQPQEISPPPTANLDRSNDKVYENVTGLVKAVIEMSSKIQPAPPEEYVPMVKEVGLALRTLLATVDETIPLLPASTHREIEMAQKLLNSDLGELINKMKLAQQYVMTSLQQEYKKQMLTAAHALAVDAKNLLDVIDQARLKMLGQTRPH
T2 sequence (P50613 with tags, fused parts or gaps): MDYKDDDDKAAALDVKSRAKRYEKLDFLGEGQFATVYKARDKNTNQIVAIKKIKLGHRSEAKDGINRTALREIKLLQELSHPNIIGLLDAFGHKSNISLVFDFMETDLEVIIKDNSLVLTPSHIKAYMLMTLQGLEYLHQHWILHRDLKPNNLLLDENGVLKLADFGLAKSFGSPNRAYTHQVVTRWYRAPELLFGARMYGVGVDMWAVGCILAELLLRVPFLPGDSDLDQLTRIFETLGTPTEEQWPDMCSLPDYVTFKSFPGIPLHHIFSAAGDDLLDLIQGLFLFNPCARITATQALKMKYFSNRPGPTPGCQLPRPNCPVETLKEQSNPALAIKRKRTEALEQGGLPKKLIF
T2 sequence (as listed by the source partner): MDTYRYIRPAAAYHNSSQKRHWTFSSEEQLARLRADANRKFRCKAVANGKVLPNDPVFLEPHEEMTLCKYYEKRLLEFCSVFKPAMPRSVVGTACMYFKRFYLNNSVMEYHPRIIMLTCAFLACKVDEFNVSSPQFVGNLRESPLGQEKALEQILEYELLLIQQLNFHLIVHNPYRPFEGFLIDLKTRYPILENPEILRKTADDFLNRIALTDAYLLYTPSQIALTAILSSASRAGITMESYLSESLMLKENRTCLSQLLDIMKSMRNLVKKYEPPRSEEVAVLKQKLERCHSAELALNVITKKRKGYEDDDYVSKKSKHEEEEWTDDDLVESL

SMILES	inhibition at 10 µM [1] [%]	inhibition at 20 µM [2] [%]
COc1ccc(-n2nnc3cnc(Nc4ccc(OCC(O)CN(C)C)cc4)nc32)cc1OC (stereo not shown) [Compound 3, 1-{4-[3-(3,4-Dimethoxy-phenyl)-3H-[1,2,3]triazolo[4,5-d]pyrimidin-5-ylamino]-phenoxy]-3-dimethylamino-propan-2-ol]	53.2	
CC(C)(C)OC(=O)N1CCC(CNc2ncc3nnn(-c4ccc5c(c4)CCC5)c3n2)CC1 [Compound 6, 4-[(3-Indan-5-yl-3H-[1,2,3]triazolo[4,5-d]pyrimidin-5-ylamino)-methyl]-piperidine-1-carboxylic acid tert-butyl ester]	73	28.9
CN(C)CC(O)COc1ccc(Nc2ncc3nnn(-c4ccccc4)c3n2)cc1 (stereo not shown) [Compound 8, 1-Dimethylamino-3-[4-(3-phenyl-3H-[1,2,3]triazolo[4,5-d]pyrimidin-5-ylamino)-phenoxy]-propan-2-ol]	77.4	92.2
CN(C)CC(O)COc1ccc(Nc2ncc3nnn(C4CCCCC4)c3n2)cc1 (stereo not shown) [Compound 9, 1-[4-(3-Cyclohexyl-3H-[1,2,3]triazolo[4,5-d]pyrimidin-5-ylamino)-phenoxy]-3-dimethylamino-propan-2-ol]	23	85.9
CN(C)CC(O)COc1ccc(Nc2ncc3nnn(-c4cccc(C#N)c4)c3n2)cc1 (stereo not shown) [Compound 10, 3-{5-[4-(3-Dimethylamino-2-hydroxy-propoxy)-phenylamino]-[1,2,3]triazolo[4,5-d]pyrimidin-3-yl]-benzonitrile]	64.7	11.5
CN(C)CC(O)COc1ccc(Nc2ncc3nnn(-c4ccc5ccccc5c4)c3n2)cc1 (stereo not shown) [Compound 12, 1-Dimethylamino-3-[4-(3-naphthalen-2-yl-3H-[1,2,3]triazolo[4,5-d]pyrimidin-5-ylamino)-phenoxy]-propan-2-ol]	82.9	92.4
CN(C)CC(O)COc1ccc(Nc2ncc3nnn(-c4ccc5ncccc5c4)c3n2)cc1 (stereo not shown) [Compound 13, 1-Dimethylamino-3-[4-(3-quinolin-6-yl-3H-[1,2,3]triazolo[4,5-d]pyrimidin-5-ylamino)-phenoxy]-propan-2-ol]	24.4	72.6
CN(C)CC(O)COc1ccc(Nc2ncc3nnn(-c4ccc5ncsc5c4)c3n2)cc1 (stereo not shown) [Compound 14, 1-[4-(3-Benzothiazol-6-yl-3H-[1,2,3]triazolo[4,5-d]pyrimidin-5-ylamino)-phenoxy]-3-dimethylamino-propan-2-ol]	76.8	42.2
CN(C)CC(O)COc1ccc(Nc2ncc3nnn(-c4ccc(C5CCCCC5)cc4)c3n2)cc1 (stereo not shown) [Compound 15, 1-{4-[3-(4-Cyclohexyl-phenyl)-3H-[1,2,3]triazolo[4,5-d]pyrimidin-5-ylamino]-phenoxy}-3-dimethylamino-propan-2-ol]	80.5	76
CN(C)CC(O)COc1ccc(Nc2ncc3nnn(-c4ccc(N5CCOCC5)cc4)c3n2)cc1 (stereo not shown) [Compound 16, 1-Dimethylamino-3-{4-[3-(4-morpholin-4-yl-phenyl)-3H-[1,2,3]triazolo[4,5-d]pyrimidin-5-ylamino]-phenoxy}-propan-2-ol]	50.5	83.1
CCCCNS(=O)(=O)c1cccc(-n2nnc3cnc(Nc4ccc(OCC(O)CN(C)C)cc4)nc32)c1 (stereo not shown) [Compound 35, N-Butyl-3-{5-[4-(3-dimethylamino-2-hydroxy-propoxy)-phenylamino]-[1,2,3]triazolo[4,5-d]pyrimidin-3-yl}-benzene-sulfonamide]	91.6	

The next lines start with the values.

inhibition at 10 µM [1] [%]	inhibition at 20 µM [2] [%]	SMILES
93.6	102	CN(C)CC(O)COc1ccc(Nc2ncc3nnn(-c4ccc5c(c4)CCC5)c3n2)cc1 (stereo not shown) [Compound 1, 1-Dimethylamino-3-[4-(3-indan-5-yl-3H-[1,2,3]triazolo[4,5-d]pyrimidin-5-ylamino)-phenoxy]-propan-2-ol]
95		CN(C)CCCOc1ccc(Nc2ncc3nnn(-c4ccc5c(c4)CCC5)c3n2)cc1 [Compound 4, [4-(3-Dimethylamino-propoxy)-phenyl]-(3-indan-5-yl-3H-[1,2,3]triazolo[4,5-d]pyrimidin-5-yl)-amine]
12.4	25.9	CCCCCOc1ccc(Nc2ncc3nnn(-c4ccc5c(c4)CCC5)c3n2)cc1 [Compound 5, (3-Indan-5-yl-3H-[1,2,3]triazolo[4,5-d]pyrimidin-5-yl)-(4-pentyloxy-phenyl)-amine]
-5	38.7	CN(C)c1ccc(/C=C/c2ccc(Nc3ncc4nnn(-c5ccc6c(c5)CCC6)c4n3)cc2)cc1 [Compound 7, {4-[2-(4-Dimethylamino-phenyl)-vinyl]-phenyl}-(3-indan-5-yl-3H-[1,2,3]triazolo[4,5-d]pyrimidin-5-yl)-amine]
65.3	56	CN(C)CC(O)COc1ccc(Nc2ncc3nnn(-c4ccc(F)c(F)c4)c3n2)cc1 (stereo not shown) [Compound 11, 1-{4-[3-(3,4-Difluoro-phenyl)-3H-[1,2,3]triazolo[4,5-d]pyrimidin-5-ylamino]-phenoxy}-3-dimethylamino-propan-2-ol]
86.8	53.8	CN(C)CC(O)COc1ccc(Nc2ncc3nnn(-c4ccc5c(c4)Cc4ccccc4-5)c3n2)cc1 (stereo not shown) [Compound 17, 1-Dimethylamino-3-{4-[3-(9H-fluoren-2-yl)-3H-[1,2,3]triazolo[4,5-d]pyrimidin-5-ylamino]-phenoxy}-propan-2-ol]
